The values below come from patent US10961235B2, “Crystalline form of masitinib” (Sandoz AG, priority 2017, dated 2021).

Read-outs that look alike come from different tables or passages of the source.

The conditions of data set [1]: cited from earlier work; for hygroscopicity (in words): as described in prior filings.
The conditions of data set [2]: cited from earlier work.
For data set [3] the following is noted: GMS, 15 to 80% RH, form A comparison (same range as FIG. 6 of WO2017/016512A1); cited from earlier work.
Data set [4] can be described thus: Gravimetric moisture sorption (GMS) of crystalline forms of masitinib mesylate. The data set is classed as physicochemical. As for the experimental part: Gravimetric moisture sorption/desorption (GMSD) isotherms were recorded with an SPSx-1μ moisture sorption analyzer (ProUmid, Ulm). The measurement cycle was started at ambient relative humidity (RH) of 25%. Relative humidity was then decreased to 5% RH in 5% steps, followed by a further decrease to 3% RH and to 0% RH. Afterwards RH was increased from 0% to 80% RH in a sorption cycle in 5% steps.
The time per step was set to a minimum of 2 hours and a maximum of 6 hours. If an equilibrium condition with a constant mass of ±0.01% within 1 hour was reached before the maximum time for all examined samples the sequential humidity step was applied before the maximum time of 6 hours. If no equilibrium was achieved the consecutive humidity step was applied after the maximum time of 6 hours. The temperature was 25±0.1° C.

A short description of data set [5]: Storage stability of crystalline form M, polymorphic conversion checked by XRPD. The data set is classed as physicochemical. The note with it: for conversion to crystal form I by XRPD / storage stability: 8 weeks at 40° C./75% relative humidity. As for the experimental part: X-Ray powder diffraction (XRPD) was performed with a PANalytical X'Pert PRO diffractometer equipped with a theta/theta coupled goniometer in transmission geometry, Cu—Kα1,2 radiation (wavelength 0.15419 nm) with a focusing mirror and a solid state PIXcel detector. Diffractograms were recorded at a tube voltage of 45 kV and a tube current of 40 mA, applying a stepsize of 0.013° 2-Theta with 40 s per step (255 channels) in the angular range of 2° to 40° 2-Theta at ambient conditions.

Another data set can be described thus: Bulk density. The data set is classed as physicochemical.

As for `CS(=O)(=O)O.Cc1ccc(NC(=O)c2ccc(CN3CCN(C)CC3)cc2)cc1Nc1nc(-c2cccnc2)cs1` [form H, salt of masitinib with methane sulfonic acid], the “hygroscopicity (in words)” value in data set [1] is reported as “low hygroscopicity”.
Turning to masitinib mesylate [DRX2], in data set [2] (response to the eESR / EP2886543 A1, DRX2 to DRX1 upon heating), the “temperatures at which problems with polymorphic conversion occur” value is “above 25 °C”.
With masitinib mesylate [crystal form I], the “water uptake in the range from 0% RH to 80% RH” value in data set [1] (0% RH to 80% RH, described for DRX I) is 4.3 w-%. The “behaviour at 80% relative humidity” value in data set [1] (80% RH, WO 2008/098949 A2) is reported as “remains dry”. Moreover, the “hygroscopicity (in words)” value in data set [1] (listed as DRX1) was “mildly hygroscopic”. Also, the “weight increase between 0% RH and 80% RH” value in data set [1] (response to the eESR, EP 11170200.7) is given as 4.3 weight-%. Besides, the “temperatures at which thermodynamically stable” value in data set [2] (WO 2008/098949 A2) was “below 200 °C”.
As to masitinib mesylate [form A], the “Mass change (water uptake) in the range of from 15-80% RH” value in data set [3] was 4.0-6.0 w-%. Moreover, in data set [1] (listed as crystal form A), the “hygroscopicity (in words)” value is “remarkably reduced compared to DRX1”. Moreover, the “reversible loss of water below 10% RH” value in data set [1] (moisture sorption/desorption curves, FIG. 6 of WO2017/016512A1) is given as “about 5 weight-%”.
On to masitinib mesylate [form M], for which the “hygroscopicity compared with form A” value in data set [4] is given as “less hygroscopic than form A”. Moreover, the “Mass change (water uptake / weight gain) in the range of from 15-80% RH” value in data set [4] (GMS, 15 to 80% RH, 25±0.1° C., form M, listed as Crystalline form M) was 0.5-1.3 w-%. Further, the “dependence of water content on relative humidity” value in data set [4] (range of 15% RH and 80% RH) was “relatively constant water content”. In data set [5] (8 weeks at 30° C./60% relative humidity), the “conversion to crystal form I by XRPD after storage” value is recorded as “did not convert to or show detectable traces of crystal form I”. Besides, the “conversion to crystal form I by XRPD / storage stability” value in data set [5] (listed as crystal form M) is given as “storage stable”; in data set [5] (listed as crystalline form M), “did not convert to or show detectable traces of crystal form I”. Moreover, the “time remaining stable as crystalline form M” value in data set [5] (30° C. and 65% relative humidity) is reported as “at least 8 weeks”; in data set [5] (40° C. and 75% relative humidity), “at least 8 weeks”. Also, the “polymorphic conversion on storage” value in data set [5] (at or below 40° C., relative humidity 15% RH to 75% RH) is recorded as “does not result in polymorphic conversion”. The same compound returned a bulk density in the data set “Bulk density” of 0.14 g/mL.
